Source: ChEMBL document CHEMBL5108052, “Histone Deacetylase and Enhancer of Zeste Homologue 2 Dual Inhibitors Presenting a Synergistic Effect for the Treatment of Hematological Malignancies” (J Med Chem, 2022)

What was measured:
HCT-116 [1] = assay: cells; conditions: Homo sapiens, HCT-116, 72 h
[2] = Binding affinity to recombinant PRC2 complex (unknown origin) incubated for 90 seconds by surface plasmon resonance assay; parameters: species or system Homo sapiens
MV4-11 [3] = assay: animal or person; assay type: functional, Homo sapiens; conditions: Mus musculus, MV4-11, 480 h, route ip, time 20 day, read-out: TGI
HL-60 [4] = conditions: time 72 hrs
Homo sapiens = organism: Homo sapiens; conditions: time 90.0 sec
SU-DHL10 [5] = conditions: time 72 hrs
HCT-116 [6] = conditions: time 72 hrs
MDA-MB-231 [7] = assay: cells; conditions: Homo sapiens, MDA-MB-231, 72 h
MV4-11 [8] = assay: cells; conditions: Homo sapiens, MV4-11, 72 h
MV4-11 [9] = conditions: time 72 hrs
SU-DHL10 [10] = assay: cells; conditions: Homo sapiens, SU-DHL10, 72 h
MDA-MB-231 [11] = conditions: time 72 hrs
HL-60 [12] = assay: cells; conditions: Homo sapiens, HL-60, 72 h
[13] = molecular target: T1, Protein deacetylase HDAC6 (Homo sapiens, UniProt Q9UBN7); assay: Inhibition of HDAC6 (unknown origin) preincubated for 5 mins followed by substrate addition and measured after 30 mins by multimode microplate reader analysis
T1 sequence (Q9UBN7 whole entry): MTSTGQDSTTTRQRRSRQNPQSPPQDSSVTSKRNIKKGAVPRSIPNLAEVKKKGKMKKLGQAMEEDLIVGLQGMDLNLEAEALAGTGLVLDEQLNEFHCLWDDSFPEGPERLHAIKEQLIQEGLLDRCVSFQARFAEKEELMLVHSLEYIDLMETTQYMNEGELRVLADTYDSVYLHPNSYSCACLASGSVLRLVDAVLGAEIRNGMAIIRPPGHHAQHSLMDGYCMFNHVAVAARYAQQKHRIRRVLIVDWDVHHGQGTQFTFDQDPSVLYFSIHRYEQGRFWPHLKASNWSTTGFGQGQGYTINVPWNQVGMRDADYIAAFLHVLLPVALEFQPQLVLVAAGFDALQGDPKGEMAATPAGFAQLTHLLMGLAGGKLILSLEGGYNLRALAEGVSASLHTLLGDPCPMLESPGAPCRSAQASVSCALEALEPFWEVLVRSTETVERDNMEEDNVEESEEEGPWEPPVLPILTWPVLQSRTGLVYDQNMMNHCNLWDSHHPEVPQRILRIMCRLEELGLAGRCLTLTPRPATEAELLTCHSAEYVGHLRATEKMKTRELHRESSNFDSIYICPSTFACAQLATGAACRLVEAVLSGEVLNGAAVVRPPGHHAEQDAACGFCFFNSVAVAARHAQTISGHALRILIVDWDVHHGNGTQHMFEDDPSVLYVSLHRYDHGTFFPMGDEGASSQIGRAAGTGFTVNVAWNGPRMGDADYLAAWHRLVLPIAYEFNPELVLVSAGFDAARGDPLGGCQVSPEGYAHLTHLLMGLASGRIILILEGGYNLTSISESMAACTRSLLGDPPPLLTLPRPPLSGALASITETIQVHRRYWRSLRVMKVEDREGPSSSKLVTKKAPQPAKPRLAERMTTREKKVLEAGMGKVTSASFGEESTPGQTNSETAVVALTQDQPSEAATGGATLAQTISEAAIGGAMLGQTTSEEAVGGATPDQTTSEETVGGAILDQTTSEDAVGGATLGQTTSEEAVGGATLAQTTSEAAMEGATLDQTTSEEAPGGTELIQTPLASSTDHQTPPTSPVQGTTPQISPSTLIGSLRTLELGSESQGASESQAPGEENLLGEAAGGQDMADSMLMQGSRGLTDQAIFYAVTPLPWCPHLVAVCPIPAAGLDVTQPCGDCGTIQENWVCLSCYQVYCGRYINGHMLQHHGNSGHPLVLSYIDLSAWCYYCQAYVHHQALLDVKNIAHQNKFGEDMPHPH

[14] = Binding affinity to recombinant PRC2 complex (unknown origin) assessed as dissociation rate constant incubated for 90 seconds by surface plasmon resonance assay; parameters: species or system Homo sapiens
Histone deacetylase 1 = Histone deacetylase 1 (Homo sapiens, UniProt Q13547); assay: Inhibition of HDAC1 (unknown origin) preincubated for 5 mins followed by substrate addition and measured after 30 mins by multimode microplate reader analysis
Histone deacetylase 1, sequence (Q13547 whole entry): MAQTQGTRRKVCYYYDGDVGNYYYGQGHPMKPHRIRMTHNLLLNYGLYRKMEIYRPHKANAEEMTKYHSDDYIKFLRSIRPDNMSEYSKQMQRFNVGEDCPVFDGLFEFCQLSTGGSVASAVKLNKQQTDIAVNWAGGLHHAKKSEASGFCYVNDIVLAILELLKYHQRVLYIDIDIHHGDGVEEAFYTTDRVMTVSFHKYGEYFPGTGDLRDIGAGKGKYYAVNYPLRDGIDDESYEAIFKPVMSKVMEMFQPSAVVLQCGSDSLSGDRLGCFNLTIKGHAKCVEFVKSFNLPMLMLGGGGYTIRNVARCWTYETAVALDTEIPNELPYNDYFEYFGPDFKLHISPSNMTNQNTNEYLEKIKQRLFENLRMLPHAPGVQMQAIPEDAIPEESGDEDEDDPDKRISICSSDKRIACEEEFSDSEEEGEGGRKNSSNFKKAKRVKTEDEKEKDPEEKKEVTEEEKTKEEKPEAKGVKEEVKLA

[15] = Metabolic stability in human liver microsomes assessed as half life measured after 5 mins in presence of NADPH and UDPGA by LC-MS/MS analysis; assay type: ADME, Microsome

Row | SMILES | IC50 (HCT-116 [1]) [µM] | Kd [2] [µM] | inhibition in vivo at 100 mg/kg (MV4-11 [3]) [%] | CI (HL-60 [4]) | Ka (Homo sapiens) | CI (SU-DHL10 [5]) | CI (HCT-116 [6]) | IC50 (MDA-MB-231 [7]) [µM] | IC50 (MV4-11 [8]) [µM] | CI (MV4-11 [9]) | IC50 (SU-DHL10 [10]) [µM] | CI (MDA-MB-231 [11]) | IC50 (HL-60 [12]) [µM] | IC50 [13] [µM] | koff [14] [s⁻¹] | IC50 (Histone deacetylase 1) [µM] | half-life [15] [min]
1 | CC[C@@H](C)n1cc(C)c2c(C(=O)NCc3c(C)cc(C)[nH]c3=O)cc(-c3ccc(N4CCNCC4)nc3)cc21 | 8.86 | 0.073 | 52.7 | 0.65 | 2.52 10^4/M/s | 0.8 | 0.91 | 15.2 | 5.15 | 0.38 | 7.22 | 1.2 | 12 | – | – | – | –
2 | Cc1cc(C)c(CNC(=O)c2cc(-c3ccc(N4CCN(C(C)C)CC4)nc3)cc3c2cnn3C(C)C)c(=O)[nH]1 | > 20 | 0.021 | – | 0.77 | – | 0.78 | 0.89 | > 20 | 11.1 | 0.43 | > 20 | 1.6 | > 20 | – | – | – | –
3 | Cc1cc(C)c(CNC(=O)c2cc(-c3ccc(NC(=O)CCCCCCC(=O)NO)cc3)cc3c2cnn3C(C)C)c(=O)[nH]1 | 17.2 | 0.96 | – | – | – | – | – | 17.5 | 1.04 | – | 0.84 | – | 2.54 | 0.18 | 0.11 | 0.32 | –
4 | CC[C@@H](C)n1cc(C)c2c(C(=O)NCc3c(C)cc(C)[nH]c3=O)cc(-c3ccc(N4CCN(CCCCCCCCC(=O)NO)CC4)nc3)cc21 | 3.74 | 0.075 | – | – | – | – | – | 5.33 | 0.74 | – | 2.02 | – | 0.86 | 2.81 | 0.0078 | > 10 | –
5 | Cc1cc(C)c(CNC(=O)c2cc(-c3ccc(N4CCN(C(=O)CCCCCCC(=O)NO)CC4)nc3)cc3c2cnn3C(C)C)c(=O)[nH]1 | 7.04 | 0.084 | – | – | – | – | – | 8.74 | 1.15 | – | 1.73 | – | 8.41 | 0.082 | 0.023 | 0.94 | –
6 | Cc1cc(C)c(CNC(=O)c2cc(-c3ccc(N4CCN(Cc5ccc(C(=O)NO)o5)CC4)nc3)cc3c2cnn3C(C)C)c(=O)[nH]1 | > 20 | 0.41 | – | – | – | – | – | > 20 | 8.21 | – | 15.2 | – | > 20 | 8.84 | 0.042 | > 10 | –
7 | Cc1cc(C)c(CNC(=O)c2cc(-c3ccc(N4CCN(c5ncc(C(=O)Nc6ccccc6N)cn5)CC4)nc3)cc3c2cnn3C(C)C)c(=O)[nH]1 | – | – | – | – | – | – | – | – | – | – | – | – | – | – | – | – | 17.7
